System: participants with SSc-RP
Test: Average severity of weekly RP attacks (VAS 0-10 cm scale)
Format: in vivo, human
Excerpt: The absolute change in average severity of weekly RP attacks (VAS 0-10 cm scale) from baseline to the end of each Dosing Period was and will be a secondary outcome variable. The sponsor-developed participant-informed diary will be used to record data. Average severity of weekly RP attacks is defined as the total severity scores of RP attacks divided by total number of RP attacks within the last 7 days of each dosing period. Total severity scores of RP attacks during the last 7 days of screening period divided by the total number of RP attacks will be used as baseline for the analysis of all periods. The variable will be calculated similar to frequency data as before.

[1] = Cilnidipine 10 mg, n=1, Excluding Outliers, ITT Population - Part A
[2] = Cilnidipine 10 mg, n=1, ITT Population - Part A
[3] = Cilnidipine 10 mg, n=1, by Baseline RCS, first subgroup, ITT Population - Part A
[4] = Cilnidipine 10 mg, Excluding Outliers, ITT Population - Part A
[5] = Cilnidipine 10 mg, Excluding Outliers, by Baseline RCS, first subgroup, ITT Population - Part A
[6] = Cilnidipine 10 mg, ITT Population - Part A
[7] = Cilnidipine 10 mg, first Baseline RCS subgroup block (not named), ITT Part A
[8] = Cilnidipine 10 mg, first Baseline RCS subgroup block (not named), ITT Part A, score 0-10
[9] = Cilnidipine 20 mg, n=2, Excluding Outliers, ITT Population - Part A
[10] = Cilnidipine 20 mg, n=2, ITT Population - Part A
[11] = Cilnidipine 20 mg, n=2, by Baseline RCS, first subgroup, ITT Population - Part A
[12] = Cilnidipine 20 mg, Excluding Outliers, ITT Population - Part A
[13] = Cilnidipine 20 mg, Excluding Outliers, by Baseline RCS, first subgroup, ITT Population - Part A

`COCCOC(=O)C1=C(C)NC(C)=C(C(=O)OC/C=C/c2ccccc2)C1c1cccc([N+](=O)[O-])c1` (stereo not shown) [Cilnidipine, cilnidipine] was tested, and the “Average Severity (0-10) of Weekly Symptomatic RP Attacks, Mean” value [1] was 3.77, the “Average Severity (0-10) of Weekly Symptomatic RP Attacks, Median” value [1] was 3.77 and the “Average Severity of Weekly Symptomatic RP Attacks, Change from Baseline, Mean” value [1] was 0.28. The “Average Severity of Weekly Symptomatic RP Attacks, Change from Baseline, Median” value [1] was 0.28, the “Average Severity of Weekly Symptomatic RP Attacks, Percent Change from Baseline, Mean” value [1] was 8.05% and the “Average Severity of Weekly Symptomatic RP Attacks, Percent Change from Baseline, Median” value [1] was 8.05%. The “Average Severity (0-10) of Weekly Symptomatic RP Attacks, Mean” value [2] was 3.77, the “Average Severity (0-10) of Weekly Symptomatic RP Attacks, Median” value [2] was 3.77 and the “Average Severity of Weekly Symptomatic RP Attacks, Change from Baseline, Mean” value [2] was 0.28. For the same molecule, the “Average Severity of Weekly Symptomatic RP Attacks, Change from Baseline, Median” value [2] was 0.28, the “Average Severity of Weekly Symptomatic RP Attacks, Percent Change from Baseline, Mean” value [2] was 8.05% and the “Average Severity of Weekly Symptomatic RP Attacks, Percent Change from Baseline, Median” value [2] was 8.05%. The “Average Severity (0-10) of Weekly Symptomatic RP Attacks, Mean” value [3] was 3.77, the “Average Severity (0-10) of Weekly Symptomatic RP Attacks, Median” value [3] was 3.77 and the “Average Severity of Weekly Symptomatic RP Attacks, Change from Baseline, Mean” value [3] was 0.28. The “Average Severity of Weekly Symptomatic RP Attacks, Change from Baseline, Median” value [3] was 0.28, the “Average Severity of Weekly Symptomatic RP Attacks, Percent Change from Baseline, Mean” value [3] was 8.05% and the “Average Severity of Weekly Symptomatic RP Attacks, Percent Change from Baseline, Median” value [3] was 8.05%. The “Average Severity of Weekly RP Attacks (All Attacks), Change from Baseline, Mean” value [4] was 0.02, the “Average Severity of Weekly RP Attacks (All Attacks), Change from Baseline, Median” value [4] was 0.02 and the “Average Severity of Weekly RP Attacks (All Attacks), Mean” value (“Average Severity … (All Attacks), Mean” for short) [4] was 3.05. The “Average Severity of Weekly RP Attacks (All Attacks), Median” value (“Average Severity … (All Attacks), Median” for short) [4] was 3.05, the “Average Severity of Weekly RP Attacks (All Attacks), Percent Change from Baseline, Mean” value [4] was 0.55% and the “Average Severity of Weekly RP Attacks (All Attacks), Percent Change from Baseline, Median” value [4] was 0.55%. For the same molecule, the “Average Severity of Weekly Symptomatic RP Attacks (Mean)” value [5] was 3.77, the “Average Severity of Weekly Symptomatic RP Attacks (Median)” value [5] was 3.77 and the “Average Severity of Weekly Symptomatic RP Attacks, Change from Baseline, Mean” value [5] was 0.28. The “Average Severity of Weekly Symptomatic RP Attacks, Change from Baseline, Median” value [5] was 0.28, the “Average Severity of Weekly Symptomatic RP Attacks, Percent Change from Baseline, Mean” value [5] was 8.05% and the “Average Severity of Weekly Symptomatic RP Attacks, Percent Change from Baseline, Median” value [5] was 8.05%. The “Average Severity of Weekly RP Attacks (All Attacks), Change from Baseline, Mean” value [6] was 0.02, the “Average Severity of Weekly RP Attacks (All Attacks), Change from Baseline, Median” value [6] was 0.02 and the “Average Severity … (All Attacks), Mean” value [6] was 3.05. For the same molecule, the “Average Severity … (All Attacks), Median” value [6] was 3.05, the “Average Severity of Weekly RP Attacks (All Attacks), Percent Change from Baseline, Mean” value [6] was 0.55% and the “Average Severity of Weekly RP Attacks (All Attacks), Percent Change from Baseline, Median” value [6] was 0.55%. For the same molecule, the “Average Severity of Weekly RP Attacks (All Attacks), Percent Change from Baseline, Mean” value [7] was 0.55%, the “Average Severity of Weekly RP Attacks (All Attacks), Percent Change from Baseline, Median” value [7] was 0.55% and the “Average Severity of Weekly RP Attacks (All Attacks), Change from Baseline, Mean” value [8] was 0.02. The “Average Severity of Weekly RP Attacks (All Attacks), Change from Baseline, Median” value [8] was 0.02, the “Average Severity … (All Attacks), Mean” value [8] was 3.05 and the “Average Severity … (All Attacks), Median” value [8] was 3.05. For the same molecule, the “Average Severity (0-10) of Weekly Symptomatic RP Attacks, Mean” value [9] was 2.30, the “Average Severity (0-10) of Weekly Symptomatic RP Attacks, Median” value [9] was 2.30 and the “Average Severity of Weekly Symptomatic RP Attacks, Change from Baseline, Mean” value [9] was −1.44. For the same molecule, the “Average Severity of Weekly Symptomatic RP Attacks, Change from Baseline, Median” value [9] was −1.44, the “Average Severity of Weekly Symptomatic RP Attacks, Percent Change from Baseline, Mean” value [9] was −32.85% and the “Average Severity of Weekly Symptomatic RP Attacks, Percent Change from Baseline, Median” value [9] was −32.85%. For the same molecule, the “Average Severity (0-10) of Weekly Symptomatic RP Attacks, Mean” value [10] was 2.30, the “Average Severity (0-10) of Weekly Symptomatic RP Attacks, Median” value [10] was 2.30 and the “Average Severity of Weekly Symptomatic RP Attacks, Change from Baseline, Mean” value [10] was −1.44. The “Average Severity of Weekly Symptomatic RP Attacks, Change from Baseline, Median” value [10] was −1.44, the “Average Severity of Weekly Symptomatic RP Attacks, Percent Change from Baseline, Mean” value [10] was −32.85% and the “Average Severity of Weekly Symptomatic RP Attacks, Percent Change from Baseline, Median” value [10] was −32.85%. For the same molecule, the “Average Severity (0-10) of Weekly Symptomatic RP Attacks, Mean” value [11] was 2.30, the “Average Severity (0-10) of Weekly Symptomatic RP Attacks, Median” value [11] was 2.30 and the “Average Severity of Weekly Symptomatic RP Attacks, Change from Baseline, Mean” value [11] was −1.44. The “Average Severity of Weekly Symptomatic RP Attacks, Change from Baseline, Median” value [11] was −1.44, the “Average Severity of Weekly Symptomatic RP Attacks, Percent Change from Baseline, Mean” value [11] was −32.85% and the “Average Severity of Weekly Symptomatic RP Attacks, Percent Change from Baseline, Median” value [11] was −32.85%. For the same molecule, the “Average Severity of Weekly RP Attacks (All Attacks), Change from Baseline, Mean” value [12] was −1.07, the “Average Severity of Weekly RP Attacks (All Attacks), Change from Baseline, Median” value [12] was −1.07 and the “Average Severity … (All Attacks), Mean” value [12] was 2.30. For the same molecule, the “Average Severity … (All Attacks), Median” value [12] was 2.30, the “Average Severity of Weekly RP Attacks (All Attacks), Percent Change from Baseline, Mean” value [12] was −27.26% and the “Average Severity of Weekly RP Attacks (All Attacks), Percent Change from Baseline, Median” value [12] was −27.26%. The “Average Severity of Weekly Symptomatic RP Attacks (Mean)” value [13] was 2.30, the “Average Severity of Weekly Symptomatic RP Attacks (Median)” value [13] was 2.30 and the “Average Severity of Weekly Symptomatic RP Attacks, Change from Baseline, Mean” value [13] was −1.44. For the same molecule, the “Average Severity of Weekly Symptomatic RP Attacks, Change from Baseline, Median” value [13] was −1.44, the “Average Severity of Weekly Symptomatic RP Attacks, Percent Change from Baseline, Mean” value [13] was −32.85% and the “Average Severity of Weekly Symptomatic RP Attacks, Percent Change from Baseline, Median” value [13] was −32.85%. The “Average Severity of Weekly RP Attacks (All Attacks), Change from Baseline, Mean” value (Cilnidipine 20 mg, ITT Population - Part A) was −1.07.

— patent US20240358693A1, “METHODS OF TREATING PAIN” (Aisa Pharma, Inc., priority 2023, published 2024)
